pIC50, pKi: −log10 of the molar value.
Tests used:
Cytochrome P450 2D6 = Cytochrome P450 2D6 (Homo sapiens, UniProt P10635)
Cytochrome P450 1A2 = biological target: T1, Cytochrome P450 1A2 (Homo sapiens, UniProt P05177)
T1 sequence (P05177 whole entry): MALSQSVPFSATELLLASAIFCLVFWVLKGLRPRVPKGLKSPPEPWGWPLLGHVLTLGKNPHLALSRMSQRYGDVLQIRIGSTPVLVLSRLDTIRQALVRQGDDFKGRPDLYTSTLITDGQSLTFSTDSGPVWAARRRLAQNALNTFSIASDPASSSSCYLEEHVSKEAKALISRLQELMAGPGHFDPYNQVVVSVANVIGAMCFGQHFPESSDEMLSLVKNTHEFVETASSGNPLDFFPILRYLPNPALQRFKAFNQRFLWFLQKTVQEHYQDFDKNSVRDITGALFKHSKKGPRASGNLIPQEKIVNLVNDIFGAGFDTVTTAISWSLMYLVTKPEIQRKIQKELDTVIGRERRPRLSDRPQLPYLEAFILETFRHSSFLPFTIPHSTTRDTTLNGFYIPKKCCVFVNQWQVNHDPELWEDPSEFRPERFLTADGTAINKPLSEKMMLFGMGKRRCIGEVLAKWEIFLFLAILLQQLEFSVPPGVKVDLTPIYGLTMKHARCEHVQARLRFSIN

Glucocorticoid receptor = biological target: T2, Glucocorticoid receptor (Homo sapiens, UniProt P04150); experiment: biochemical
T2 sequence (P04150 whole entry): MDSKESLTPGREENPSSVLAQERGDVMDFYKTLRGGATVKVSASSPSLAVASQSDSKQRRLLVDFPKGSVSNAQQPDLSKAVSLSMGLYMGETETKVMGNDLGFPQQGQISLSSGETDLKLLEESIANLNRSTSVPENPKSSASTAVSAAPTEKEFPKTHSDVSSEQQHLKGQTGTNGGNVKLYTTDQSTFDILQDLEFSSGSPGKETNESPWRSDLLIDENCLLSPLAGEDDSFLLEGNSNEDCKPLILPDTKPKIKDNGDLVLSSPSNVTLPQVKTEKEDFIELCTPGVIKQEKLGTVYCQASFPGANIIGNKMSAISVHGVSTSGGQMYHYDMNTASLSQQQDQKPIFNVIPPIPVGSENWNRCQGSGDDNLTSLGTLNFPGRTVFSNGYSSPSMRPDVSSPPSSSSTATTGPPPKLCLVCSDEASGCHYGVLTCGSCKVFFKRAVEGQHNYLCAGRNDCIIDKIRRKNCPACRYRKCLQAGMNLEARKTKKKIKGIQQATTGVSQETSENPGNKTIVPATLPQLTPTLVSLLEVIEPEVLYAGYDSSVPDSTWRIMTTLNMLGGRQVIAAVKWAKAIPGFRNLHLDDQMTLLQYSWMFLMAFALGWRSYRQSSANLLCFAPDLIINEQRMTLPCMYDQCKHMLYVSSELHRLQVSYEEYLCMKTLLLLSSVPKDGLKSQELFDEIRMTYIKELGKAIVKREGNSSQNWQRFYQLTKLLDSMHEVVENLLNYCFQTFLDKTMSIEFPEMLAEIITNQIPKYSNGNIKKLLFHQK

[1] = biological target: Voltage-gated inwardly rectifying potassium channel KCNH2 (Homo sapiens, UniProt Q12809)
Sequence of Voltage-gated inwardly rectifying potassium channel KCNH2 (Q12809 whole entry): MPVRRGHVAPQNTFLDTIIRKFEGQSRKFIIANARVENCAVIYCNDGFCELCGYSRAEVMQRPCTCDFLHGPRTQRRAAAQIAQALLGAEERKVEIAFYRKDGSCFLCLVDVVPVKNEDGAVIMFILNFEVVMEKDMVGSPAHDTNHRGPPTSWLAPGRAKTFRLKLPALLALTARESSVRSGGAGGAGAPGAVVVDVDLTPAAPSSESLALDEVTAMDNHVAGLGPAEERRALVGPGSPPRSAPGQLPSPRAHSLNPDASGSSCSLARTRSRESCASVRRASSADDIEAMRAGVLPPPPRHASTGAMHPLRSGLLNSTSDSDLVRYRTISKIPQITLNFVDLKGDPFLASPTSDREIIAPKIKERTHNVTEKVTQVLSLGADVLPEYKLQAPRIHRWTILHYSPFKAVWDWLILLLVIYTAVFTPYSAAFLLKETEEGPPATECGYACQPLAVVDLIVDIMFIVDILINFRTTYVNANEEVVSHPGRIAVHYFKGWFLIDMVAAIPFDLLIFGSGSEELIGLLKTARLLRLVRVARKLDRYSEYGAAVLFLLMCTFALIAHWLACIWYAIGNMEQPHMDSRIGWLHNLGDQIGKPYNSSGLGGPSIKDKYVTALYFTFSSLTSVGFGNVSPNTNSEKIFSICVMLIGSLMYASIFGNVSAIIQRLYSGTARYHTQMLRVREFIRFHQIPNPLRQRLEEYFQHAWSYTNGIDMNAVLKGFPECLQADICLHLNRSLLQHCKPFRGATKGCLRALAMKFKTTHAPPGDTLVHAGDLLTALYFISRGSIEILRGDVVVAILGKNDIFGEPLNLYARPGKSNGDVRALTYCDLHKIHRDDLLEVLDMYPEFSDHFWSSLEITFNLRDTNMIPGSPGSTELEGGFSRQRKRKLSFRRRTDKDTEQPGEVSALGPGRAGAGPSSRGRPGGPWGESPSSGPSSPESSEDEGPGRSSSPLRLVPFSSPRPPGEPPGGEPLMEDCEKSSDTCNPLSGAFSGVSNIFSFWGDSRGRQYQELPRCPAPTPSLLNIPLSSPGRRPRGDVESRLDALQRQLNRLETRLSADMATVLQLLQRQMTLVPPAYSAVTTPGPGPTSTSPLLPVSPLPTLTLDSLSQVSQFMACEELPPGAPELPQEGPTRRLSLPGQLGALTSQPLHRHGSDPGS

Androgen receptor = biological target: T3, Androgen receptor (Rattus norvegicus, UniProt P15207)
T3 sequence (P15207 whole entry): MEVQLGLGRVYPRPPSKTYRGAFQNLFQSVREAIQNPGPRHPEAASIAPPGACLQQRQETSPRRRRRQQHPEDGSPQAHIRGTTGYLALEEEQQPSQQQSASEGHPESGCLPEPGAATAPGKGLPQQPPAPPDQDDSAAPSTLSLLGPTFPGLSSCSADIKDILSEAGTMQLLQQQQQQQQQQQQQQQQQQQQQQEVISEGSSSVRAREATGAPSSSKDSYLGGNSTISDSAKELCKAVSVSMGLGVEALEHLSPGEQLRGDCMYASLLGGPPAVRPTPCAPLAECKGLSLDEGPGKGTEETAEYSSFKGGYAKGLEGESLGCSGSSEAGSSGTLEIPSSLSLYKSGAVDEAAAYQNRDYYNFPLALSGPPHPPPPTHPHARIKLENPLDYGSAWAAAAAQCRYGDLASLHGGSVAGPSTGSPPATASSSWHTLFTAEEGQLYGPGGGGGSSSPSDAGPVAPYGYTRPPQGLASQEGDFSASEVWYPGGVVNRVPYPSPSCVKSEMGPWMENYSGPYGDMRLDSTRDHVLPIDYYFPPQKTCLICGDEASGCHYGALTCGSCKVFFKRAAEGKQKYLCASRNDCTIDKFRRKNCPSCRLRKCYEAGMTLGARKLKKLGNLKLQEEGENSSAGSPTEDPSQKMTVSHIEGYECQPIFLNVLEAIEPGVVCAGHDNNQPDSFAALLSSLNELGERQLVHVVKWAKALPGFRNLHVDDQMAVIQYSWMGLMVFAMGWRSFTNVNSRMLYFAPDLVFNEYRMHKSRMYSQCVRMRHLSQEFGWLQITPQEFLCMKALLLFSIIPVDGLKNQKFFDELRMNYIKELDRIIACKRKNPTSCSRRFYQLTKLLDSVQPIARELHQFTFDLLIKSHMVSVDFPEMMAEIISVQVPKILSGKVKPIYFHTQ

Cytochrome P450 2C9 = Cytochrome P450 2C9 (Homo sapiens, UniProt P11712)
Sequence of Cytochrome P450 2C9 (P11712 whole entry): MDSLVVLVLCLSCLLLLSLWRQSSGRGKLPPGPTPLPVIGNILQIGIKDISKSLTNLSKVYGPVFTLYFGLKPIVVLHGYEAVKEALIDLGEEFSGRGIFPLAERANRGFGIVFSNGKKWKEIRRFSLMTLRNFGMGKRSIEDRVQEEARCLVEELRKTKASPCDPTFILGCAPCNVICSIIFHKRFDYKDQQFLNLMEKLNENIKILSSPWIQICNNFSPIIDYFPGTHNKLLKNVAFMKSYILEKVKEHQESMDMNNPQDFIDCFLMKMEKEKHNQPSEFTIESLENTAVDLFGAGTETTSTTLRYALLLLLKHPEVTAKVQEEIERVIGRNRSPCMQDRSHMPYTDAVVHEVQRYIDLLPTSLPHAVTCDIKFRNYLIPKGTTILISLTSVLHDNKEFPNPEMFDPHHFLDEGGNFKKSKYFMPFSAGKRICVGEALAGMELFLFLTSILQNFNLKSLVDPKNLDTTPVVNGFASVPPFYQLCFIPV

Glycine receptor = Glycine receptor (Rattus norvegicus, UniProt P07727+P20781+P22771+P24524); format: cell membranes, Wistar, Spinal cord, Membrane
Sequence of Glycine receptor (P22771 whole entry): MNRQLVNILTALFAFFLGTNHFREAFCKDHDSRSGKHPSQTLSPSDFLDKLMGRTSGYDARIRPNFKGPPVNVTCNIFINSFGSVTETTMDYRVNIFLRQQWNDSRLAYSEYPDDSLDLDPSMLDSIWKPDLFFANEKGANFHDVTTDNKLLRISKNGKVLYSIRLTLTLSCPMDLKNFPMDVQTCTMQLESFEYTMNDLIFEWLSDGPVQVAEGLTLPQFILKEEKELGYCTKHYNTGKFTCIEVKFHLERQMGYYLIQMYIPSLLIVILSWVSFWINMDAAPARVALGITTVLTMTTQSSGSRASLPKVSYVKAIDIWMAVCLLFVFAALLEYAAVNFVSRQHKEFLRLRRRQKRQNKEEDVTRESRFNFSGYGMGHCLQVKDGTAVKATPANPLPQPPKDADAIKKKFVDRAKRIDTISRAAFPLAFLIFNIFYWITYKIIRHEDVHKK
Sequence of Glycine receptor (P24524 whole entry): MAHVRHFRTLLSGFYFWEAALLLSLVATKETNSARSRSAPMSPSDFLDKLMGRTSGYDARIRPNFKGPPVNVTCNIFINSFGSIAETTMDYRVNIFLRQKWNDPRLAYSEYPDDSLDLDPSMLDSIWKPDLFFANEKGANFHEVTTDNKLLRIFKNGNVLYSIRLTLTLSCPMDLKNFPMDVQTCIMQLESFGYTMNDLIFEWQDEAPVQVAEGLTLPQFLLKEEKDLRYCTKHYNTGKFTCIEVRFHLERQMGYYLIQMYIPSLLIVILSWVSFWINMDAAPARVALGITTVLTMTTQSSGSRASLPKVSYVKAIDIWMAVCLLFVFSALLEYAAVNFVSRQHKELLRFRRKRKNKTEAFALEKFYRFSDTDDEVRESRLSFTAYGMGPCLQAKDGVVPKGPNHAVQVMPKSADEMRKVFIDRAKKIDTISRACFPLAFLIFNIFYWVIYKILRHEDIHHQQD
Sequence of Glycine receptor (P07727 whole entry): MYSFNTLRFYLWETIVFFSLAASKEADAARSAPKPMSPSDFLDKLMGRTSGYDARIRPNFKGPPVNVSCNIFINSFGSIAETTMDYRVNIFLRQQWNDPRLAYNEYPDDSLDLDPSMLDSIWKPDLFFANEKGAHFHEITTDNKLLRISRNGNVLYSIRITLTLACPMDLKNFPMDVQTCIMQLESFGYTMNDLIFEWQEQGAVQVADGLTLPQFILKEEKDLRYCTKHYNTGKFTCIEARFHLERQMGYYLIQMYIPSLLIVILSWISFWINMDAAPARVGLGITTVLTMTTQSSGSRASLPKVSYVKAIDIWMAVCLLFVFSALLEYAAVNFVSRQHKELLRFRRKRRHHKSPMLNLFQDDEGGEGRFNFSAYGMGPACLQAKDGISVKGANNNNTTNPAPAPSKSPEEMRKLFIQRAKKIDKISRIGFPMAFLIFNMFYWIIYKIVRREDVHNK
Sequence of Glycine receptor (P20781 whole entry): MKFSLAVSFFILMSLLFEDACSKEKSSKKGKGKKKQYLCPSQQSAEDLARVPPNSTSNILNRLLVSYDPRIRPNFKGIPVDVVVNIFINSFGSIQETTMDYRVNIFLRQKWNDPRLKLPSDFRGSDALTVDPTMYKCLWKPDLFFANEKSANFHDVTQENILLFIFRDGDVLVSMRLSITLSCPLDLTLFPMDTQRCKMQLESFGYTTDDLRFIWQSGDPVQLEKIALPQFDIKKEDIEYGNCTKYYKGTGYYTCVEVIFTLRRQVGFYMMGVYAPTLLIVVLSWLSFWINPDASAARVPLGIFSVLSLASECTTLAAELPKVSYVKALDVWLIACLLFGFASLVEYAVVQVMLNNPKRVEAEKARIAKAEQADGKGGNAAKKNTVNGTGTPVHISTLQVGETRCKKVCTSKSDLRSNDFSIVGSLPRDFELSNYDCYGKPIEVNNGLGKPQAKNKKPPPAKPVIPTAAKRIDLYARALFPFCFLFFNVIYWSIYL

Sequence of Cytochrome P450 2D6 (P10635 whole entry): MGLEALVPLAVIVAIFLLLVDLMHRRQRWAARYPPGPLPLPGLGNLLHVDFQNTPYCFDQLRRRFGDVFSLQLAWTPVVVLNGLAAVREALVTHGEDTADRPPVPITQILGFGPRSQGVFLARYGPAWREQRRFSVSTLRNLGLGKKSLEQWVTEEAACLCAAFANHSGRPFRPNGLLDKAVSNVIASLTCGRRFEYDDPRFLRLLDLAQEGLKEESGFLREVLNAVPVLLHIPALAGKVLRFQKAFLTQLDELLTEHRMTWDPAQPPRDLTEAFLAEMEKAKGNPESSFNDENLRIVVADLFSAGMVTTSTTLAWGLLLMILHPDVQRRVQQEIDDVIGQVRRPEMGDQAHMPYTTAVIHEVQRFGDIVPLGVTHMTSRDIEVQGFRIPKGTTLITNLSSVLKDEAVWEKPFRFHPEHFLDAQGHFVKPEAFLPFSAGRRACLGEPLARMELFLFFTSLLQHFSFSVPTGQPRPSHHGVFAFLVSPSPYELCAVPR

**Q.** `COc1ccc2cc3[n+](cc2c1OC)CCc1cc2c(cc1-3)OCO2.[Cl-]` [BERBERINE CHLORIDE] was tested. Which pIC50 (Cytochrome P450 2D6) did it give?
**A.** The pIC50 was 5.35.

**Q.** With `O=c1cc(N2CCOCC2)oc2c(-c3ccccc3)cccc12` [LY-294002] as the compound, how does the pIC50 (Cytochrome P450 1A2) read?
**A.** The pIC50 was 6.00.

**Q.** How did the pIC50 (Glucocorticoid receptor) turn out when `C[C@@H]1C[C@H]2[C@@H]3CCC4=CC(=O)C=C[C@]4(C)[C@@]3(F)[C@@H](O)C[C@]2(C)[C@H]1C(=O)CO` [DESOXIMETASONE] was run?
**A.** The pIC50 was 8.59.

**Q.** And the pKi (Glucocorticoid receptor)?
**A.** Its pKi is 8.93.

**Q.** How did the pIC50 [1] turn out when `CCN(CC)CCOCCC1=CCC2CC1C2(C)C` (stereo unspecified) [MYRTECAINE] was run?
**A.** The pIC50 was 5.23.

**Q.** And the pKi [1]?
**A.** Its pKi is 5.32.

**Q.** What does the source list for `CC(=O)[C@@]1(O)CC[C@H]2[C@@H]3CCC4=CC(=O)CC[C@]4(C)[C@H]3CC[C@@]21C` [HYDROXYPROGESTERONE]?
**A.** pIC50 (Glucocorticoid receptor): 7.29; pKi (Glucocorticoid receptor): 7.64

**Q.** With `Oc1c(Cl)cc(Cl)c(Cl)c1Cc1c(O)c(Cl)cc(Cl)c1Cl` [HEXACHLOROPHENE] as the compound, how does the pIC50 (Androgen receptor) read?
**A.** Its pIC50 is 5.30.

**Q.** And the pKi (Androgen receptor)?
**A.** Its pKi is 5.48.

**Q.** What about the pIC50 (Cytochrome P450 1A2) of the same compound?
**A.** Its pIC50 is 5.88.

**Q.** With `COC1=C(OC)C(=O)C(CCCCCCCCCCO)=C(C)C1=O` [IDEBENONE] as the compound, how does the pIC50 (Cytochrome P450 2C9) read?
**A.** Its pIC50 is 5.30.

**Q.** And the pIC50 (Cytochrome P450 2D6)?
**A.** The pIC50 was 5.52.

**Q.** `O=C(c1ccccc1C(F)(F)F)N1CCC(Cc2ccccc2)CC1` was tested. Which pIC50 (Cytochrome P450 2C9) did it give?
**A.** Its pIC50 is 5.70.

**Q.** `OC(CCCN1CCCCC1)(c1ccccc1)c1ccccc1` [DIPHENIDOL] was tested. Which pIC50 (Cytochrome P450 2D6) did it give?
**A.** Its pIC50 is 6.49.

**Q.** `CCC(=O)O[C@]1(C(=O)CCl)[C@@H](C)C[C@H]2[C@@H]3CCC4=CC(=O)C=C[C@]4(C)[C@@]3(F)[C@@H](O)C[C@@]21C` [CLOBETASOL PROPIONATE] was tested. Which pIC50 (Androgen receptor) did it give?
**A.** Its pIC50 is 5.42.

**Q.** What about the pKi (Androgen receptor) of the same compound?
**A.** The pKi was 5.60.

**Q.** What about the pIC50 (Glucocorticoid receptor) of the same compound?
**A.** The pIC50 was 8.84.

**Q.** What about the pKi (Glucocorticoid receptor) of the same compound?
**A.** The pKi was 9.18.

**Q.** With `Cc1c(OCC(F)(F)F)ccnc1C[S+]([O-])c1nc2ccccc2[nH]1` (stereo unspecified) [LANSOPRAZOLE] as the compound, how does the pIC50 (Cytochrome P450 2D6) read?
**A.** The pIC50 was 5.27.

**Q.** `CC(=O)[C@H]1[C@H](C#N)C[C@H]2[C@@H]3CC=C4C[C@@H](O)CC[C@]4(C)[C@H]3CC[C@@]21C` [PREGNENOLONE CARBONITRILE] was tested. Which pIC50 (Glucocorticoid receptor) did it give?
**A.** Its pIC50 is 4.86.

**Q.** And the pKi (Glucocorticoid receptor)?
**A.** The pKi was 5.20.

**Q.** With `CC[C@H](C)[C@H]1O[C@]2(C=C[C@@H]1C)C[C@@H]1C[C@@H](C/C=C(\C)[C@@H](O[C@H]3C[C@H](OC)[C@@H](O[C@H]4C[C@H](OC)[C@@H](O)[C@H](C)O4)[C@H](C)O3)[C@@H](C)/C=C/C=C3\CO[C@@H]4[C@H](O)C(C)=C[C@@H](C(=O)O1)[C@]34O)O2.CO[C@H]1C[C@H](O[C@H]2[C@H](C)O[C@@H](O[C@@H]3/C(C)=C/C[C@@H]4C[C@@H](C[C@]5(C=C[C@H](C)[C@@H](C(C)C)O5)O4)OC(=O)[C@@H]4C=C(C)[C@@H](O)[C@H]5OC/C(=C\C=C\[C@@H]3C)[C@]54O)C[C@@H]2OC)O[C@@H](C)[C@@H]1O` [ABAMECTIN] as the compound, how does the pIC50 (Glycine receptor) read?
**A.** Its pIC50 is 6.88.

**Q.** And the pKi (Glycine receptor)?
**A.** Its pKi is 7.12.

**Q.** With `Cc1cc2c(OCC(CNC(C)(C)C)OC(=O)c3ccccc3)cccc2[nH]1` (stereo unspecified) [BOPINDOLOL] as the compound, how does the pIC50 (Cytochrome P450 2D6) read?
**A.** The pIC50 was 5.26.

**Q.** `CC(=O)Oc1ccc(C(c2ccc(OC(C)=O)cc2)c2ccccn2)cc1` [BISACODYL] was tested. Which pIC50 (Cytochrome P450 2C9) did it give?
**A.** Its pIC50 is 5.00.

**Q.** With `O=C(N/N=C/c1ccc([N+](=O)[O-])o1)c1cc([N+](=O)[O-])cc([N+](=O)[O-])c1O` [NIFURSOL] as the compound, how does the pIC50 (Cytochrome P450 2C9) read?
**A.** The pIC50 was 5.15.

**Q.** Which results are given for `COc1cc2nc(N3CCN(C(=O)c4ccco4)CC3)nc(N)c2cc1OC` [PRAZOSIN]?
**A.** pIC50 [1]: 4.61; pKi [1]: 4.70

**Q.** With `C#CC1(O)CC[C@H]2[C@@H]3CCC4=CC(=O)CC[C@@H]4[C@H]3CC[C@@]21CC` (stereo partly specified) [NORGESTREL] as the compound, how does the pIC50 (Glucocorticoid receptor) read?
**A.** Its pIC50 is 6.83.

**Q.** What about the pKi (Glucocorticoid receptor) of the same compound?
**A.** The pKi was 7.17.
